Source: patent US20220324835A1 (Nurix Therapeutics, Inc., priority 2018, published 2022)

Assays:
Cbl-b [1] = biological target: T1, Cbl-b (Homo sapiens, UniProt Q13191); assay: Cbl-b inhibition assay (Cbl-b activity assay, FRET, Biological Example 1; 100 mM NaCl, 60 nM Src kinase); assay type: biochemical; details: upper bound stated in text lists; read-out: IC50 values in the Cbl-b inhibition assay of Biological Example 1
How it was run: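 TR-FRET assay using N-terminal biotinylated Avi-tagged Cbl-b bound to streptavidin-terbium, Src kinase for Cbl-b phosphorylation, and UbcH5B irreversibly conjugated to Bodipy-Fluorescein-ubiquitin. Phosphorylated Cbl-b binds UbcH5B-Ub, bringing the fluorophores together; inhibition is read as loss of FRET signal.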

T-cell [2] = assay: IL-2 secretion from T-cells co-stimulated with anti-CD3 and anti-CD28 antibody (Biological Example 2); assay type: cell-based, human; details: Homo sapiens, T-cell, primary human total T-cells, baseline = anti-CD3/anti-CD28 stimulated cells without inhibitor, read-out: IL-2 secretion, Anti-CD3/Anti-CD28 stimulation, fold change over baseline; for fold induction at 0.3 µM: 0.3 μM compound; for fold induction at 1 µM: 1 μM compound; for fold induction at 4 µM: 4 μM compound
How it was run: (§1)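 T-cells were stimulated with anti-CD3 antibody alone or with anti-CD28 antibody, in the presence or absence of Cbl-b inhibitor. IL-2 secretion or CD25 surface staining was measured, and values expressed as fold over the uninhibited baseline […].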

T-cell [3] = assay: CD25 cell surface staining on T-cells co-stimulated with anti-CD3 and anti-CD28 antibody (Biological Example 2); assay type: cell-based, human; details: Homo sapiens, T-cell, primary human total T-cells, baseline = anti-CD3/anti-CD28 stimulated cells without inhibitor, read-out: CD25 staining, Anti-CD3/Anti-CD28 stimulation, fold change over baseline; for fold induction at 0.3 µM: 0.3 μM compound; for fold induction at 1 µM: 1 μM compound; for fold induction at 4 µM: 4 μM compound
How it was run: as §1

Cbl-b [4] = biological target: T1, Cbl-b; assay: Cbl-b activity assay (Cbl-b inhibition assay), TR-FRET of Cbl-b interaction with UbcH5B-Ub; assay type: biochemical; details: assay buffer with 100 mM NaCl, 60 nM Src kinase; read-out: Cbl-b activity IC50
How it was run: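 UbcH5B (C85K) conjugated to N-terminally Bodipy-Fluorescein-labeled ubiquitin served as the fluorescent partner. After compound preincubation, Src kinase (60 nM) with 1 mM ATP and 5 mM MgCl2 (final) was added for 1.5 h, followed by a further 1 h incubation. Some values were obtained with 50 mM NaCl and 30 nM Src.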

T-cell [5] = assay: IL-2 secretion from T-cells stimulated with anti-CD3 antibody alone (Biological Example 2); assay type: cell-based; details: primary human total T-cells, read-out: IL-2 secretion, Anti-CD3 stimulation, fold change over baseline; for fold induction at 1 µM: 1 μM compound; for fold induction at 8 µM: 8 μM compound
T-cell [6] = assay: CD25 cell surface staining on T-cells stimulated with anti-CD3 antibody alone (Biological Example 2); assay type: cell-based; details: primary human total T-cells, baseline = anti-CD3/anti-CD28 stimulated cells without inhibitor, read-out: CD25 staining, Anti-CD3 stimulation, fold change over baseline; for fold induction at 1 µM: 1 μM compound; for fold induction at 8 µM: 8 μM compound

T1 sequence (Q13191 36-427): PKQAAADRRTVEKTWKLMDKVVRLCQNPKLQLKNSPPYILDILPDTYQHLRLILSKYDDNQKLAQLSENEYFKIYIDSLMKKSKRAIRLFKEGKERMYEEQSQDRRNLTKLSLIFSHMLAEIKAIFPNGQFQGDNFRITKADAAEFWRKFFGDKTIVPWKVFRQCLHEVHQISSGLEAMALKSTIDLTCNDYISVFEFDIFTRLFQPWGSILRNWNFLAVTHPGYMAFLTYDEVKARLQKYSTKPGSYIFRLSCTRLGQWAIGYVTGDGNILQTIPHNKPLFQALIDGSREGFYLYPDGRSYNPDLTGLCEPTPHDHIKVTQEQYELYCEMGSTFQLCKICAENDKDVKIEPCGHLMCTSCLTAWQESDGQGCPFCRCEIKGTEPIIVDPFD

Cc1cc(C(=O)Nc2cccc([C@@]3(Cc4nncn4C)CCOC3)c2)nc(C2CC2)n1 (single isomer, unassigned) [Compound 534b]
IC50 (Cbl-b [1]): ≤ 100 nM
fold induction at 0.3 µM (T-cell [2]): 2.51 to 5
fold induction at 1 µM (T-cell [2]): 2.51 to 5
fold induction at 0.3 µM (T-cell [3]): 1.01 to 1.3
fold induction at 1 µM (T-cell [3]): 1.01 to 1.3
IC50 (Cbl-b [4]): < 100 nM
fold induction at 1 µM (T-cell [5]): 0.101 to 0.15
fold induction at 1 µM (T-cell [6]): 0.801 to 1

CN1CC2CCC1CN2c1cc2c(c(C(F)(F)F)c1)CN(c1cccc(C3(Cc4nncn4C)COC3)c1)C2=O (stereo not shown) [Compound 387, 2-(3-(3-((4-Methyl-4H-1,2,4-triazol-3-yl)methyl)oxetan-3-yl)phenyl)-6-(5-methyl-2,5-diazabicyclo[2.2.2]octan-2-yl)-4-(trifluoromethyl)isoindolin-1-one]
IC50 (Cbl-b [1]): ≤ 100 nM
fold induction at 0.3 µM (T-cell [2]): 2.51 to 5
fold induction at 1 µM (T-cell [2]): 5 to 7.5
fold induction at 0.3 µM (T-cell [3]): 1.01 to 1.3
fold induction at 1 µM (T-cell [3]): 1.31 to 1.5
IC50 (Cbl-b [4]): < 100 nM
fold induction at 1 µM (T-cell [5]): > 0.201
fold induction at 1 µM (T-cell [6]): 0.801 to 1

CC(c1cc2c(c(C(F)(F)F)c1)CN(c1cccc(C3(Cc4nncn4C)COC3)c1)C2=O)N1CC(S(C)(=O)=O)C1 (stereo not drawn) [Compound 430, 2-(3-(3-((4-methyl-4H-1,2,4-triazol-3-yl)methyl)oxetan-3-yl)phenyl)-6-(l-(3-(methylsulfonyl)azetidin-1-yl)ethyl)-4-(trifluoromethyl)isoindolin-1-one]
IC50 (Cbl-b [1]): ≤ 100 nM
fold induction at 0.3 µM (T-cell [2]): 1.01 to 2.5
fold induction at 1 µM (T-cell [2]): 1.01 to 2.5
fold induction at 0.3 µM (T-cell [3]): 1.01 to 1.3
fold induction at 1 µM (T-cell [3]): 1.01 to 1.3
IC50 (Cbl-b [4]): < 100 nM
fold induction at 1 µM (T-cell [5]): 0.101 to 0.15
fold induction at 1 µM (T-cell [6]): 0.601 to 0.8

Cc1cc(C(=O)Nc2cccc(-c3c(-c4nncn4C)cnn3C)c2)nc(C2CC2)n1 [Compound 522, 2-cyclopropyl-6-methyl-N-(3-(l-methyl-4-(4-methyl-4H-1,2,4-triazol-3-yl)-1H-pyrazol-5-yl)phenyl)pyrimidine-4-carboxamide]
IC50 (Cbl-b [1]): ≤ 300 nM
fold induction at 0.3 µM (T-cell [2]): 1.01 to 2.5
fold induction at 1 µM (T-cell [2]): 1.01 to 2.5
fold induction at 0.3 µM (T-cell [3]): 1.01 to 1.3
fold induction at 1 µM (T-cell [3]): 1.01 to 1.3
IC50 (Cbl-b [4]): 100 to 300 nM
fold induction at 1 µM (T-cell [5]): 0.101 to 0.15
fold induction at 1 µM (T-cell [6]): 0.601 to 0.8

Cc1conc1CC1(c2cccc(NC(=O)c3cc(CN4CCC5(CC5)C4)cc(C4CC4)n3)c2)COC1 [Compound 500, 4-{5-azaspiro[2.4]heptan-5-ylmethyl}-6-cyclopropyl-N-(3-{3-[(4-methyl-1,2-oxazol-3-yl)methyl]oxetan-3-yl}phenyl)pyridine-2-carboxamide]
IC50 (Cbl-b [1]): ≤ 100 nM
fold induction at 0.3 µM (T-cell [2]): > 7.5
fold induction at 1 µM (T-cell [2]): > 7.5
fold induction at 0.3 µM (T-cell [3]): 1.31 to 1.5
fold induction at 1 µM (T-cell [3]): 1.31 to 1.5
IC50 (Cbl-b [4]): < 100 nM
fold induction at 1 µM (T-cell [5]): > 0.201
fold induction at 1 µM (T-cell [6]): > 1

CCOc1cc([C@@](C)(F)C(F)(F)c2nncn2C)cc(NC(=O)c2cc(C)nc(C3CC3)n2)n1 [Compound 469, 2-cyclopropyl-N-{6-ethoxy-4-[(2R)-1,1,2-trifluoro-1-(4-methyl-4H-1,2,4-triazol-3-yl)propan-2-yl]pyridin-2-yl}-6-methylpyrimidine-4-carboxamide]
IC50 (Cbl-b [1]): ≤ 300 nM
fold induction at 0.3 µM (T-cell [2]): 1.01 to 2.5
fold induction at 1 µM (T-cell [2]): 1.01 to 2.5
fold induction at 0.3 µM (T-cell [3]): 1.01 to 1.3
fold induction at 1 µM (T-cell [3]): 1.01 to 1.3
IC50 (Cbl-b [4]): 100 to 300 nM
fold induction at 1 µM (T-cell [5]): 0.101 to 0.15
fold induction at 1 µM (T-cell [6]): 0.801 to 1

C[C@H](c1cc2c(c(C(F)(F)F)c1)CN(c1cccc(C3(Cc4nncn4C)COC3)c1)C2=O)N1CCC(F)(F)C1 [Compound 419, (R)-6-(1-(3,3-difluoropyrrolidin-1-yl)ethyl)-2-(3-(3-((4-methyl-4H-1,2,4-triazol-3-yl)methyl)oxetan-3-yl)phenyl)-4-(trifluoromethyl)isoindolin-1-one]
IC50 (Cbl-b [1]): ≤ 100 nM
fold induction at 0.3 µM (T-cell [2]): 2.51 to 5
fold induction at 1 µM (T-cell [2]): > 7.5
fold induction at 4 µM (T-cell [2]): > 7.5
fold induction at 0.3 µM (T-cell [3]): 1.01 to 1.3
fold induction at 1 µM (T-cell [3]): 1.31 to 1.5
fold induction at 4 µM (T-cell [3]): 1.31 to 1.5
IC50 (Cbl-b [4]): < 100 nM
fold induction at 1 µM (T-cell [5]): 0.151 to 0.2
fold induction at 8 µM (T-cell [5]): > 0.201
fold induction at 1 µM (T-cell [6]): > 1
fold induction at 8 µM (T-cell [6]): > 1

Cn1cnnc1C(F)(F)[C@](C)(F)c1cccc(N2Cc3c(cc(CN4CC(C#N)C4)cc3C(F)(F)F)C2=O)c1 [Compound 456, (R)-1-((3-oxo-2-(3-(1,1,2-trifluoro-1-(4-methyl-4H-1,2,4-triazol-3-yl)propan-2-yl)phenyl)-7-(trifluoromethyl)isoindolin-5-yl)methyl)azetidine-3-carbonitrile]
IC50 (Cbl-b [1]): ≤ 300 nM
fold induction at 0.3 µM (T-cell [2]): 1.01 to 2.5
fold induction at 1 µM (T-cell [2]): 2.51 to 5
fold induction at 4 µM (T-cell [2]): 5 to 7.5
fold induction at 0.3 µM (T-cell [3]): 1.01 to 1.3
fold induction at 1 µM (T-cell [3]): 1.01 to 1.3
fold induction at 4 µM (T-cell [3]): 1.01 to 1.3
IC50 (Cbl-b [4]): 100 to 300 nM
fold induction at 1 µM (T-cell [5]): 0.051 to 0.1
fold induction at 8 µM (T-cell [5]): 0.101 to 0.15
fold induction at 1 µM (T-cell [6]): 0.801 to 1
fold induction at 8 µM (T-cell [6]): > 1

C[C@H](Cc1nncn1C)c1cccc(N2Cc3c(cc([C@@H]4CCCNC4)cc3C(F)(F)F)C2=O)c1 [Compound 382, 2-(3-((R)-1-(4-methyl-4H-1,2,4-triazol-3-yl)propan-2-yl)phenyl)-6-((S)-piperidin-3-yl)-4-(trifluoromethyl)isoindolin-1-one]
IC50 (Cbl-b [1]): ≤ 300 nM
fold induction at 0.3 µM (T-cell [2]): 2.51 to 5
fold induction at 1 µM (T-cell [2]): 5 to 7.5
fold induction at 4 µM (T-cell [2]): 5 to 7.5
fold induction at 0.3 µM (T-cell [3]): 1.01 to 1.3
fold induction at 1 µM (T-cell [3]): 1.31 to 1.5
fold induction at 4 µM (T-cell [3]): 1.51 to 1.75
IC50 (Cbl-b [4]): 100 to 300 nM
fold induction at 1 µM (T-cell [5]): 0.101 to 0.15
fold induction at 8 µM (T-cell [5]): > 0.201
fold induction at 1 µM (T-cell [6]): 0.601 to 0.8
fold induction at 8 µM (T-cell [6]): > 1

C[C@H](c1cc2c(c(C(F)(F)F)c1)CN(c1cccc(C3([C@@H](F)c4nncn4C)COC3)c1)C2=O)N1CCC2(CC2)C1 (stereo in doubt) [Compound 515, 6-[(1R)-1-{5-azaspiro[2.4]heptan-5-yl}ethyl]-2-(3-{3-[(R)-fluoro(4-methyl-1,2,4-triazol-3-yl)methyl]oxetan-3-yl}phenyl)-4-(trifluoromethyl)-3H-isoindol-1-one]
IC50 (Cbl-b [1]): ≤ 100 nM
fold induction at 0.3 µM (T-cell [2]): > 7.5
fold induction at 1 µM (T-cell [2]): > 7.5
fold induction at 0.3 µM (T-cell [3]): > 1.76
fold induction at 1 µM (T-cell [3]): > 1.76
IC50 (Cbl-b [4]): < 100 nM
fold induction at 1 µM (T-cell [5]): > 0.201
fold induction at 1 µM (T-cell [6]): > 1

Cc1conc1CC1(c2cccc(NC(=O)c3cc(CN4CC[C@H](O)C4)nc(C4CC4)n3)c2)COC1 [Compound 507, 2-cyclopropyl-6-{[(3S)-3-hydroxypyrrolidin-1-yl]methyl}-N-(3-{3-[(4-methyl-1,2-oxazol-3-yl)methyl]oxetan-3-yl}phenyl)pyrimidine-4-carboxamide]
IC50 (Cbl-b [1]): ≤ 100 nM
fold induction at 0.3 µM (T-cell [2]): > 7.5
fold induction at 1 µM (T-cell [2]): > 7.5
fold induction at 0.3 µM (T-cell [3]): 1.31 to 1.5
fold induction at 1 µM (T-cell [3]): 1.31 to 1.5
IC50 (Cbl-b [4]): < 100 nM
fold induction at 1 µM (T-cell [5]): > 0.201
fold induction at 1 µM (T-cell [6]): > 1

Cn1cnnc1C(F)(F)[C@](C)(F)c1cccc(N2Cc3c(cc(-c4cncc(F)c4)cc3C(F)(F)F)C2=O)c1 [Compound 440, (R)-6-(5-fluoropyridin-3-yl)-2-(3-(1,1,2-trifluoro-1-(4-methyl-4H-1,2,4-triazol-3-yl)propan-2-yl)phenyl)-4-(trifluoromethyl)isoindolin-1-one]
IC50 (Cbl-b [1]): ≤ 300 nM
fold induction at 0.3 µM (T-cell [2]): 1.01 to 2.5
fold induction at 1 µM (T-cell [2]): 2.51 to 5
fold induction at 4 µM (T-cell [2]): 2.51 to 5
fold induction at 0.3 µM (T-cell [3]): < 1
fold induction at 1 µM (T-cell [3]): 1.01 to 1.3
fold induction at 4 µM (T-cell [3]): 1.01 to 1.3
IC50 (Cbl-b [4]): 100 to 300 nM
fold induction at 1 µM (T-cell [5]): 0.101 to 0.15
fold induction at 8 µM (T-cell [5]): 0.151 to 0.2
fold induction at 1 µM (T-cell [6]): 0.601 to 0.8
fold induction at 8 µM (T-cell [6]): 0.801 to 1
